From patent publication US7767789B2, “Truncated proteins as cancer markers” (University Hopitals of Cleveland, priority 2005, dated 2010)
Entries after “also recorded” stand apart in the source; their conditions may differ. Where two headings read alike, the source gives them in different places.

Experiments:
CaSki cells [1] = test: Number of CaSki cells in culture; format: cell-based, human; conditions: serum-free; 0.2 nM EGF, 2 nM epinephrine, or both, 24 h
Description: Near-confluent cultures of CaSki cells on filters were shifted for 14 hours to serum-free medium supplemented with 1% BSA and were treated in the same medium with 0.2 nM EGF, 2 nM epinephrine, or both for an additional 24 h. At the completion of treatments, cells were harvested off the filters and counted.

CaSki cells [2] = test: DNA solubilization assay (apoptosis); format: cell-based, human
Description: Twenty-four hours before the end of the experiment, cells were labeled with [^3H]thymidine (specific activity, 93 Ci/mmol; 5 μCi/1×10^6 cells) for 16 h. The medium was removed, and cells were washed three times with fresh medium lacking [^3H]thymidine and were incubated in the same medium for an additional 6 h. At the end of incubation, the supernatant was stored, and cells were lysed in 0.5 ml lysis buffer (10 mM Tris-HCl, pH 7.5; plus 1 mM EDTA-0.2% Triton X-100) for 1 h at 4° C. The intact chromatin was separated from the fragmented DNA by 5 min centrifugation at 4° C. in Eppendorf microcentrifuge at 12,000×g. The supernatant (lysate) was stored, while the pellet was resuspended in 0.5 ml of 1% sodium dodecyl sulfate (SDS). The radioactivity contained in the supernatants, lysates; and pellets was counted in a scintillation counter, and DNA fragmentation was calculated as: [% Solubilized DNA]=([cpm supernatant+cpm lysates]/[cpm supernatant+cpm lysate+cpm pellet])×100.

CaSki cells [3] = test: DNA synthesis by [3H]thymidine incorporation; format: cell-based, human; conditions: 0.2 nM EGF, 2 nM epinephrine
Description: The experiments used CaSki cells, a line of transformed cervical epithelial cells that were obtained from the ATCC (Manassas, Va.) and were previously characterized as stably expressing phenotypic characteristics of human cervical epithelial cells. Cells were grown and subcultured in RPMI-1640 supplemented with 8% fetal calf serum, 0.2% NaHCO3, nonessential amino acids (0.1 mM), L-glutamine (2 mM), penicillin (100 U/ml), streptomycin (100 μg/ml), and gentamycin ([…]) at 37° C. in a […] humidified incubator. Cultures were routinely tested for mycoplasma. Preliminary experiments were conducted on cells plated on culture plates, and definitive experiments were repeated on cells plated on filters. Filters were either Anocell (Anocell-10, Oxon, UK, obtained through Sigma Chemicals, St. Louis, Mo.), Transwell (Costar Corporation, Cambridge, Mass.), or Millicell-CM (Millipore, Bedford, Mass.). Filters were coated on their upper (luminal) surface with 3-5 μg/cm collagen type IV and incubated at 37° C. overnight. […] DNA synthesis DNA synthesis was measured by [^3H]thymidine incorporation. […] The radioactivity [dpm/mg protein, determined by Bio-Rad (Hercules, Calif.) Protein Assay solution] of triplicated samples was determined by scintillation counting (LS1801 scintillation counter; Beckman, Fullerton, Calif.).

Bcl-2 = conditions: cited from earlier work
P2X7 receptor = conditions: cited from earlier work
[4] = system: hECEs, ECE16-1, HT3, CaSki, SiHa and Hela cells; conditions: cited from earlier work
caspase-9 = conditions: hECEs and CaSki cells; cited from earlier work

Substance	number of cells in culture (CaSki cells [1])	effect on TNFα-induced increase in DNA solubilization (CaSki cells [2]; pretreatment 24 h: 1 μM zinterol or 0.2 nM EGF)	effect on BzATP-induced apoptosis (DNA solubilization) (CaSki cells [2]; pretreatment: EGF 0.2 nM, zinterol/terbutaline 1 μM 24 h, forskolin 10 μM 14 h with IBMX, isoproterenol 10 μM, phenylephrine 100 μM)	[3H]thymidine incorporation (CaSki cells [3])	Bcl-2 regulation (Bcl-2; CaSki cells)	Bcl-2 regulation (Bcl-2; SiHa and Hela cells)	BzATP-induced calcium influx (P2X7 receptor; cancer CaSki cells)	BzATP-induced calcium influx (P2X7 receptor; normal hECEs)	P2X7 receptor-induced apoptosis ([4]; SiHa and Hela cells)	earliest effects after adding the hormone [4] [h]	baseline and P2X7 receptor-induced apoptosis ([4]; hECEs, ECE16-1, HT3, and CaSki cells)	P2X7 receptor-induced activation of caspase-9 (caspase-9)
EGF: Human recombinant EGF, epidermal growth factor	increased the number of cells in culture	no significant effect	little effect; also recorded: no significant effect	increased [^3H]thymidine incorporation	–	–	–	–	–	–	–	–
17β-estradiol [estrogen]	–	–	–	–	upregulated Bcl-2	did not find estrogen regulation of Bcl-2	only a mild effect	did block BzATP-induced calcium influx	no effect	1 to 3	blocked baseline and P2X7 receptor-induced apoptosis	blocked P2X7 receptor-induced activation of caspase-9
